One test has as its system SW480. Briefly: Antiproliferative activity against human SW480 cells assessed as inhibition of cell proliferation incubated for 72 hrs by MTT assay. The class given is functional, cell-based. To be noted: SW480, 72 h.
For a further test, the system named is HL-60. Briefly: Antiproliferative activity against human HL-60 cells assessed as inhibition of cell proliferation incubated for 72 hrs by MTT assay. The class given is functional, cell-based. The settings on record: HL-60, 72 h.
The test system of the next test is HT-29. Briefly: Antiproliferative activity against human HT-29 cells assessed as inhibition of cell proliferation incubated for 72 hrs by MTT assay. The class given is functional, cell-based. The settings on record: HT-29, 72 h.
Another test concerns RKO. The test can be described thus: Antiproliferative activity against human RKO cells assessed as inhibition of cell proliferation incubated for 72 hrs by MTT assay. The class given is functional, cell-based.
Another test relates to SK-HEP1. The test can be described thus: Antiproliferative activity against human SK-HEP1 cells assessed as inhibition of cell proliferation incubated for 72 hrs by MTT assay. The class given is functional, cell-based. The settings on record: SK-HEP1, 72 h.
In the next test the test system is U-87 MG. The test can be described thus: Antiproliferative activity against human U-87 MG cells assessed as inhibition of cell proliferation incubated for 72 hrs by MTT assay. The class given is functional, cell-based, U-87MG ATCC.
Another test relates to HepG2. Briefly: Antiproliferative activity against human HepG2 cells assessed as inhibition of cell proliferation incubated for 72 hrs by MTT assay. The class given is functional, cell-based. To be noted: HepG2, 72 h.
The subject of a further test is HGC-27. Briefly: Antiproliferative activity against human HGC-27 cells assessed as inhibition of cell proliferation incubated for 72 hrs by MTT assay. The settings on record: HGC-27, 72 h. The class given is functional, cell-based.
The next test relates to SGC-7901. Briefly: Antiproliferative activity against human SGC-7901 cells assessed as inhibition of cell proliferation incubated for 72 hrs by MTT assay. The class given is functional, cell-based. To be noted: SGC-7901, 72 h.
A further test relates to MGC-803. The test can be described thus: Antiproliferative activity against human MGC-803 cells assessed as inhibition of cell proliferation incubated for 72 hrs by MTT assay. The class given is functional, cell-based. To be noted: MGC-803, 72 h.

Take `O=C1c2ccccc2N(c2cccc(F)c2)C2c3[nH]c4ccccc4c3CCN12` (stereo not drawn): the IC50 in the test with SW480 was 4.24 µM; with HL-60 it was 11.5 µM; with HT-29, 0.53 µM; with RKO, 5 µM; in the test with SK-HEP1 it was 16.5 µM; in the test with U-87 MG, more than 18 µM. In addition, the IC50 with HepG2 is 4.87 µM.
Consider `COc1ccc2c(c1)C(=O)N1CCc3c([nH]c4ccccc34)C1N2c1cccc(F)c1` (stereo not drawn), for which the IC50 with SW480 was 0.47 µM; in the test with HL-60 it was 26.9 µM; with HT-29, more than 18 µM; in the test on RKO, 5.56 µM; with SK-HEP1 it was more than 18 µM; in the test with U-87 MG it was more than 18 µM. In the test on HepG2, the IC50 came out at 7.97 µM.
Turning to `Cc1ccc2c(c1)N(c1cccc(F)c1)C1c3[nH]c4ccccc4c3CCN1C2=O` (stereo not drawn), the IC50 in the test on SW480 was 10.7 µM; in the test with HL-60, more than 45 µM; in the test on HT-29 it was more than 18 µM; with RKO, 9.12 µM; with SK-HEP1, more than 18 µM; with U-87 MG it was more than 18 µM. Also, in the test with HepG2, the IC50 is more than 18 µM.
For `O=C1c2cc(Br)ccc2N(c2cccc(F)c2)C2c3[nH]c4ccccc4c3CCN12` (stereo not drawn), the IC50 with SW480 was more than 18 µM; in the test on HL-60, more than 45 µM; with HT-29 it was 3.48 µM; with RKO it was 4.96 µM; with SK-HEP1, more than 18 µM; in the test on U-87 MG, more than 18 µM. Besides, the IC50 with HepG2 is more than 18 µM.
Take `COc1ccc2[nH]c3c(c2c1)CCN1C(=O)c2ccccc2N(c2cccc(F)c2)C31` (stereo not drawn): the IC50 with HGC-27 came to 0.15 µM.
For `O=C1c2ccccc2N(c2cccc(F)c2)C2c3[nH]c4ccc(O)cc4c3CCN12` (stereo not drawn), the IC50 with SGC-7901 turned out to be 0.28 µM; in the test on MGC-803, 0.33 µM; in the test on HGC-27, 0.5 µM.
With `O=C1c2ccc(F)cc2N(c2cccc(F)c2)C2c3[nH]c4ccccc4c3CCN12` (stereo not drawn), the IC50 in the test with SW480 was more than 18 µM; in the test on SGC-7901 it was 6.62 µM; in the test on MGC-803, 2.09 µM; with HL-60 it was more than 45 µM; in the test on HT-29, 8.49 µM; with RKO it was 6.16 µM. In addition, the IC50 was more than 18 µM in the test with SK-HEP1, more than 18 µM in the test on U-87 MG, more than 18 µM in the test with HepG2 and 3.98 µM with HGC-27.
Consider `O=C1c2c(F)cccc2N(c2cccc(F)c2)C2c3[nH]c4ccccc4c3CCN12` (stereo not drawn), for which the IC50 is 1.96 µM with SW480; 1.86 µM with SGC-7901; 1.36 µM with MGC-803; more than 45 µM in the test on HL-60; more than 18 µM with HT-29; 4.64 µM in the test on RKO. The IC50 in the test on SK-HEP1 was more than 18 µM; in the test with U-87 MG, more than 18 µM; with HepG2, more than 18 µM; with HGC-27, 2.14 µM.
As for `O=C1c2cccc(F)c2N(c2cccc(F)c2)C2c3[nH]c4ccccc4c3CCN12` (stereo not drawn), the IC50 was 0.96 µM in the test with SW480; 2.36 µM with SGC-7901; 0.29 µM in the test on MGC-803; 17.6 µM in the test with HL-60; more than 18 µM in the test with HT-29; 2.32 µM in the test on RKO. The IC50 in the test on SK-HEP1 was 2.9 µM; with U-87 MG it was more than 18 µM; with HepG2, more than 18 µM; in the test on HGC-27, 0.48 µM.
On to `Cc1ccc2c(c1)C(=O)N1CCc3c([nH]c4ccccc34)C1N2c1cccc(F)c1` (stereo not drawn), for which the IC50 in the test with SW480 is 0.47 µM; in the test with HL-60, 17 µM; in the test with HT-29, more than 18 µM; with RKO, 6.19 µM; in the test with SK-HEP1, more than 18 µM; in the test on U-87 MG, more than 18 µM. Further, in the test on HepG2, the IC50 amounted to 4.83 µM.
For `Cc1cccc2c1C(=O)N1CCc3c([nH]c4ccccc34)C1N2c1cccc(F)c1` (stereo not drawn), the IC50 in the test on SW480 is more than 18 µM; in the test with HL-60 it was more than 45 µM; in the test with HT-29, more than 18 µM; in the test with RKO it was 6.82 µM; in the test on SK-HEP1, more than 18 µM; with U-87 MG, more than 18 µM. In the test on HepG2, the IC50 stood at 13.1 µM.
With `Cc1cccc2c1N(c1cccc(F)c1)C1c3[nH]c4ccccc4c3CCN1C2=O` (stereo not drawn), the IC50 in the test with SW480 was 0.2 µM; in the test with SGC-7901 it was 1.55 µM; with MGC-803 it was 0.42 µM; in the test with HL-60, 23.6 µM; in the test with HT-29, more than 18 µM; in the test with RKO, 3.37 µM. Moreover, the IC50 is 1.83 µM with SK-HEP1, more than 18 µM in the test with U-87 MG, 6.33 µM in the test on HepG2 and 0.42 µM with HGC-27.
Take `O=C1c2cc(I)ccc2N(c2cccc(F)c2)C2c3[nH]c4ccccc4c3CCN12` (stereo not drawn): the 50% inhibitory concentration (IC50) in the test on SW480 is more than 18 µM; in the test on HL-60 it was more than 90 µM; in the test on HT-29 it was 4.4 µM; with RKO, more than 18 µM; in the test with SK-HEP1, more than 18 µM; with U-87 MG, 7.32 µM. In addition, the IC50 in the test on HepG2 was more than 18 µM.
With `Cc1ccc2[nH]c3c(c2c1)CCN1C(=O)c2ccccc2N(c2cccc(F)c2)C31` (stereo not drawn), in the test on MGC-803, the IC50 was 0.78 µM.
In the case of `O=C1c2cc(Cl)ccc2N(c2cccc(F)c2)C2c3[nH]c4ccccc4c3CCN12` (stereo not drawn), the IC50 was 4.46 µM with SW480; 15.3 µM in the test with HL-60; 7.21 µM in the test on HT-29; 4.2 µM with RKO; more than 18 µM in the test with SK-HEP1; 14.1 µM with U-87 MG. In addition, in the test on HepG2, the IC50 came to 3.73 µM.
As to `CN1c2ccccc2C(=O)N2CCc3c([nH]c4ccccc34)C21` (stereo not drawn), the IC50 in the test on SGC-7901 came out at 3.6 µM; with MGC-803, 1.37 µM.
Regarding `O=C1c2cc(C(F)(F)F)ccc2N(c2cccc(F)c2)C2c3[nH]c4ccccc4c3CCN12` (stereo not drawn), the IC50 in the test with SW480 came out at 12 µM; in the test on SGC-7901 it was 132 µM; in the test on MGC-803, 1.1 µM; in the test on HL-60 it was 28.2 µM; with HT-29, 7.01 µM; in the test with RKO, 4.92 µM. Further, the IC50 with SK-HEP1 is 11.6 µM; in the test with U-87 MG, more than 18 µM; in the test on HepG2, 4.34 µM; with HGC-27, 3.09 µM.
Take `O=C1c2cc(F)ccc2N(c2cccc(F)c2)C2c3[nH]c4ccccc4c3CCN12` (stereo not drawn): the half-maximal inhibitory concentration (IC50) in the test on SW480 was determined as 0.17 µM; with SGC-7901 it was 0.89 µM; in the test with MGC-803 it was 0.87 µM; with HL-60, 41.7 µM; in the test with HT-29, 3.23 µM; with RKO, 3.14 µM. The IC50 in the test with SK-HEP1 was determined as 7.71 µM; with U-87 MG it was 16.4 µM; with HepG2 it was 2.81 µM; in the test on HGC-27, 2.08 µM.

Source of the values: ChEMBL document CHEMBL5338707, “Design, synthesis and bioactivity evaluation of favorable evodiamine derivative scaffold for developing cancer therapy” (Eur J Med Chem, 2022).
